Test results: the METLIN SMRT retention time set (Domingo-Almenara et al. 2019)

Experiment: gradient 5% acetonitrile 3 min, to 50% in 2 min, to 85% in 15 min, held 3 min, 100 µL/min
Conditions: column: Zorbax Extend-C18 2.1 x 50 mm; eluents: water / acetonitrile, 0.1% formic acid
In short: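 The mobile phases were water and acetonitrile, each with 0.1% formic acid, pumped at 100 μL/min through a Zorbax Extend-C18 column (2.1 × 50 mm, 1.8 μm). Pure standards were injected as mixtures of ~100 molecules and detected by a quadrupole time-of-flight mass spectrometer in positive and negative ionization mode. Retention time came from computationally picked adduct peaks, each inspected by hand.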

Compound	RP-LC retention time [s]
COc1ccc(Cc2nc3nccc(-c4ccccc4)n3n2)cc1	872
Cc1ccc2nc(-c3cccnc3)cc(C(=O)Nc3nc(-c4ccccc4)c(C)s3)c2c1	1070
O=S(=O)(c1ccc(Cl)c(-c2nnc(-c3ccccc3)o2)c1)N(CCO)CCO	739
CCn1c(=O)c(Nc2ccc(C)c(Cl)c2)nc2ccncc21	649
Cc1cccc2nc(-c3ccc(O)cc3)c(Nc3ccc4c(c3)OCCO4)n12	646
CCC(=O)Nc1ccc2c(c1)nc(CN1CCCC1)n2C(C)C	581
CC(CCc1ccco1)NC(=O)c1nnn(-c2ccccc2)c1-c1ccccn1 (centres undefined)	862
COc1cccc(Cc2nc(Cc3nc(-c4ccccc4)oc3C)no2)c1	1090
O=C(Nc1cccc(N2CCCS2(=O)=O)c1)Nc1cccs1	696
Cc1nn(C)c(C)c1CCN(C)C(=O)C1Cn2cccc2C(=O)N1C (centres undefined)	680
COc1ccc(NC(=O)CSc2nc3nc(C)cc(C)n3n2)c(OC)c1	713
CCc1ccccc1NC(=O)CSc1nnc2c3cc(-c4ccc(C)c(C)c4)nn3ccn12	1050
CCc1cccc(NS(=O)(=O)c2cc3n(c2)CCN(C(C)C)C3=O)c1	816
CCOC(=O)c1cc(S(=O)(=O)N2CCCC2C(=O)N2CCC3(CC2)OCCO3)cn1C (centres undefined)	720
COc1cc(C(=O)Nc2nc(-c3ccc(C)cc3)cs2)c(Br)c(OC)c1OC	1120
CCn1cc(CCNC(=O)Nc2cc(F)c(F)c(F)c2)c2cccnc21	820
Cn1nc(C(=O)N2CCOCC2)c2c1CN(C(=O)Cc1ccsc1)C2	640
CCN1CCN(c2cc(C)c3cc(NC(=O)CC4CCCCC4)ccc3n2)CC1	594
COC[C@@H]1CN(S(=O)(=O)c2cccc(C)c2)C[C@H]1c1ccccn1	651

Compound	RP-LC retention time [s]
CC1=NS(=O)(=O)N(C)C=C1C(=O)OCc1cc(C)ccc1C	957
CCCc1sc(Nc2ccccc2OCC)nc1-c1ccc(Cl)c(Cl)c1	1030
Cc1ccc(-c2noc(Cn3cnc4c(cnn4-c4ccc(Br)cc4)c3=O)n2)cc1	1250
CC(COc1ccc(C(C)C)cc1)NC(=O)c1cccs1 (centres undefined)	998
Cc1sc(-c2cc(C(F)(F)F)on2)cc1S(=O)(=O)Nc1ccc(Br)cc1F	1230
CCn1cc(-c2ccccc2)cc1C(=O)NCC(C)C	1070
CCOc1cc(C(=O)NCC(=O)Nc2nc3ccccc3[nH]2)cc(OCC)c1OCC	715
O=c1oc2cc(O)ccc2s1	771
CCOc1ccc(-c2nc(-c3ccc4nnn(CC)c4c3)no2)cc1	1140
CCN(CCCc1ccccc1)CCCc1ccccc1	874
Cc1ccc(-n2nc(C)c3c(C)c(CCC(=O)NCCc4c[nH]c5ccccc45)c(C)nc32)cc1C	1150
COc1ccc(NC(=O)Cn2nc3nc(N4CCCC4)ccn3c2=O)cc1OC	617
O=C(NCC1CCN(S(=O)(=O)C2CC2)CC1)c1ccccn1	652
O=C(c1ccco1)N1CCN(C(=O)c2nnn3c2COC(c2ccccc2)C3)CC1 (centres undefined)	762
Clc1ccccc1-c1ccnc2nc(-c3ccccc3)nn12	928
Cc1ccoc1C(=O)N1C[C@@H](CO)[C@H](c2nc(C3CC3)no2)C1	688
O=C(CCn1c(=O)sc2ccccc21)Nc1nc(-c2ccc(Br)cc2)cs1	1120
COCCCn1c(=O)c2ccccc2n(Cc2nc(-c3ccc(OC(C)C)cc3)no2)c1=O	1120
CCCOC(=O)C1=C(C)NC2=C(C(=O)C(C(=O)OC)C(C)C2)C1c1ccccc1F (centres undefined)	954

More lines, now with the values ahead:

RP-LC retention time [s]	Compound
1090	COc1ccc(S(=O)(=O)N2CCC(c3noc(-c4ccccc4C)n3)CC2)cc1OC
953	Cc1nc(-c2ccc3c(c2)CCN3C(=O)c2cccs2)cs1
564	Cc1cc(N2CCN(C)CC2)nc2ccc(NC(=O)NCc3ccco3)cc12
760	O=C(NCc1ccccc1)C1CCN(S(=O)(=O)c2cc(C(=O)N3CCCC3)cs2)CC1
789	CCOC(=O)Cc1ccc(NC(=O)N2CCN(c3ccc(=O)n(-c4ccc(F)cc4)n3)CC2)cc1
821	Cc1ccc(CNC(=O)N2CC(n3cc(COc4ccc(F)cc4)nn3)C2)cc1
878	CN(CCc1noc(COc2ccc(F)cc2)n1)C(=O)c1ccc(F)cc1
768	CCOC(=O)CNC(=O)N1CCCC1c1ccccc1C (centres undefined)
713	COc1ccccc1CNC(=O)CSc1ccc(-c2ccccn2)nn1
662	CN1CCN(CCNC(=O)C2CCCN(c3nc4ccccc4n(Cc4ccccc4)c3=O)C2)CC1 (centres undefined)
724	Cn1c(=O)c(-c2ccc(C(=O)NCC3CCCO3)cc2)nc2ccccc21 (centres undefined)
668	O=C(Nc1cccc(Br)c1)N1CCC(n2cnnc2C2CC2)C1 (centres undefined)
824	Cc1ccc(CNC(=O)c2ccc3c(c2)CCN3C(=O)C2CC2)cc1
715	O=C(NCc1ccco1)C1CCN(S(=O)(=O)c2cc(C(=O)N3CCCC3)cs2)CC1
946	COc1ccc(NC(=O)C2CCN(S(=O)(=O)c3cc(-c4noc(C)n4)cs3)CC2)cc1Cl
531	O=C(NCc1ccc(F)cc1)Nc1cnc2c(c1)CCC2
783	CCCCCn1c(SCC(=O)OCC)nc2cc(C(=O)N3CCC(C(N)=O)CC3)ccc2c1=O
850	C=CC(=O)N1CCCC(n2nc(-c3ccc(Oc4ccccc4)cc3)c3c(N)ncnc32)C1 (centres undefined)
674	CCCn1cnc2cc(CNC(=O)c3ccc(C(F)(F)F)cc3)ccc21
575	CN1C(=O)CC[C@]2(C(=O)NCc3cc(F)ccc3F)CCCC[C@@H]12
923	CCc1ccc(NC(=O)C2CCCN(S(=O)(=O)c3c[nH]c(C(=O)N4CCCCCC4)c3)C2)cc1 (centres undefined)
729	CCn1c(C)c(CN2CCC(C(=O)N3CCN(c4ccccc4F)CC3)CC2)c2ccccc21
1130	CCc1cc(C(=O)Nc2ccc(C#N)cc2)nc2cc(-c3ccco3)nn12
915	CCn1cc(C(=O)NCc2ccc(F)cc2)c(S(=O)(=O)N2CCSCC2)n1
977	Cc1ccc(Cl)cc1N1CCN(C(=O)CN2C(=O)C3C4C=CC(C4)C3C2=O)CC1 (centres undefined)
892	Cc1ccc(CN2C(=O)Cn3cccc3C2C(=O)NC2CCCC2)cc1 (centres undefined)

RP-LC retention time [s]	Compound
887	CS(=O)(=O)Nc1ccc(C2(C(=O)NCc3cccc(F)c3)CCCCC2)cc1
911	Cc1ccc(NS(=O)(=O)c2cc3c(s2)CCN(C(=O)C2CCC2)C3)cc1F
877	CCOc1ccc(NC(=O)C2CCN(S(C)(=O)=O)c3cc(Cl)ccc3O2)cc1 (centres undefined)
791	CC(C)c1ccc(S(=O)(=O)N2CCC3(CC2)NCCN=C3NCc2ccccc2)cc1
925	Cc1[nH]c(C(=O)Nc2ccccc2)c(C)c1S(=O)(=O)N1CCCCC1
877	COc1ccc(CNC(=O)C2CCN(S(C)(=O)=O)c3cc(Cl)ccc3O2)cc1 (centres undefined)
1200	COc1ccc(CNS(=O)(=O)c2cc(-c3nc(C(C)(C)C)cs3)cs2)cc1
721	Cc1nc(NC(=O)Cn2nc3c(cc2=O)CCCC3)sc1C
813	Cc1cccc(C)c1NC(=O)C1CCN(S(=O)(=O)c2ccc3c(c2)NC(=O)CO3)CC1
793	O=C(NCc1cccc(F)c1)C1CCN(c2cnc(N3CCSCC3)nc2)CC1
825	O=C(CN1CCC2(CC1)N=C(c1ccc(Br)cc1)C(=O)N2)Nc1ccccc1
1270	Cc1ccc(C)c(N2CCN(S(=O)(=O)c3cc(-c4cnn5c(C)cc(C)nc45)ccc3C)CC2)c1
1140	CSc1ccc(C2c3[nH]c4ccccc4c3CCN2C(=O)c2ccco2)cc1 (centres undefined)
743	COCCCNC(=O)Cn1c(=O)c(S(=O)(=O)c2ccccc2)cc2cc(C)ccc21
979	O=C(c1ccccc1Cl)N1CCC(COCc2ccccc2)CC1
665	Cc1ccc(NC(=O)CN2CCc3[nH]c4c(C)cc(F)cc4c(=O)c3C2)c(Cl)c1
596	O=C(NCc1ccco1)c1ccc2c(c1)nc1n2CCCCC1
913	Cc1c(C(=O)C(=O)N2CCc3ccccc3C2)c2ccccc2n1C
687	CC(C)(NC(=O)c1cccs1)C(=O)N1CCN(c2ccccc2)CC1
669	COc1ccc(-c2nc(N3CCOCC3)c3ccccc3n2)cc1
595	CCCNC(=O)C1CCCN(c2ccc(SCC(=O)Nc3ccc(OCC)cc3)nn2)C1 (centres undefined)
795	Cc1c(CCC(=O)N2CCC(C(N)=O)CC2)c(=O)oc2cc3oc4c(c3cc12)CCCC4
754	Cc1ccc(-c2ncc(C(=O)N(C)C)c(-c3ccncc3)n2)cc1
975	Cn1cnc2c(C(=O)NC3CCCCC3)nn(-c3cccc(Cl)c3)c2c1=O
850	Cc1cc2c(=O)n(CC(=O)Nc3cccc(Br)c3)ccc2s1
